Test results reported in BindingDB's records for doi:10.1021/jm500763m (Beijing Institute of Pharmacology & Toxicology, 2014).
Square brackets hold non-standard residues; d marks the D form. Peptide text beside a SMILES is read from it. * marks the point of attachment. X3 = C=C(C)[C@@H]1CC[C@]2(C(=O)O)CC[C@]3(C)[C@H](CC[C@@H]4[C@@]5(C)CC[C@H](OC(=O)CCc6cn(CC(=O)*)nn6)C(C)(C)[C@@H]5CC[C@]43C)[C@@H]12; X2 = C=CCOC(=O)[C@]12CCC(C)(C)C[C@H]1C1=CC[C@@H]3[C@@]4(C)CC[C@H](OC(=O)CCc5cn(CC(=O)*)nn5)C(C)(C)[C@@H]4CC[C@@]3(C)[C@]1(C)CC2; βAla = NCCC(=O)O

assay: Inhibition of HIV1 gp41-induced cell-cell fusion between viral envelope expressing human HL2/3 cells to CD4/CCR5 receptor expressing TZM-bl cells after 6 to 8 hrs by luciferase assay

Row | EC50 [µM] | SMILES
1 | 3.24 | CC[C@H](C)[C@H](NC(=O)[C@H](CC(C)C)NC(=O)[C@H](CO)NC(=O)[C@H](Cc1cnc[nH]1)NC(=O)[C@@H](NC(=O)[C@H](CC(C)C)NC(=O)[C@H](CO)NC(=O)[C@@H](NC(=O)[C@H](Cc1ccc(O)cc1)NC(=O)[C@H](CC(N)=O)NC(=O)[C@H](CC(N)=O)NC(C)=O)[C@@H](C)O)[C@@H](C)CC)C(=O)N[C@@H](CCC(=O)O)C(=O)N[C@@H](CCC(=O)O)C(=O)N[C@@H](CO)C(=O)N[C@@H](CCC(N)=O)C(=O)N[C@@H](CC(N)=O)C(=O)N[C@@H](CCC(N)=O)C(=O)N[C@@H](CCC(N)=O)C(=O)N[C@@H](CCC(=O)O)C(=O)N[C@@H](CCCCN)C(=O)N[C@@H](CC(N)=O)C(=O)N[C@@H](CCC(=O)O)C(=O)N[C@@H](CCC(N)=O)C(=O)N[C@@H](CCC(=O)O)C(=O)N[C@@H](CC(C)C)C(=O)N[C@@H](CC(C)C)C(N)=O (Ac-NNYTSLIHSLIEESQNQQEKNEQELL-NH2)
2 | 0.0033 | C=CCOC(=O)[C@]12CCC(C)(C)C[C@H]1C1=CC[C@@H]3[C@@]4(C)CC[C@H](OC(=O)CCc5cn(CC(=O)NCCCC[C@H](NC(=O)CCNC(=O)[C@H](CC(C)C)NC(=O)[C@H](CC(C)C)NC(=O)[C@H](CCC(=O)O)NC(=O)[C@H](CCC(N)=O)NC(=O)[C@H](CCC(=O)O)NC(=O)[C@H](CC(N)=O)NC(=O)[C@H](CCCCN)NC(=O)[C@H](CCC(=O)O)NC(=O)[C@H](CCC(N)=O)NC(=O)[C@H](CCC(N)=O)NC(=O)[C@H](CC(N)=O)NC(=O)[C@H](CCC(N)=O)NC(=O)[C@H](CO)NC(=O)[C@H](CCC(=O)O)NC(=O)[C@H](CCC(=O)O)NC(=O)[C@@H](NC(=O)[C@H](CC(C)C)NC(=O)[C@H](CO)NC(=O)[C@H](Cc6cnc[nH]6)NC(=O)[C@@H](NC(=O)[C@H](CC(C)C)NC(=O)[C@H](CO)NC(=O)[C@@H](NC(=O)[C@H](Cc6ccc(O)cc6)NC(=O)[C@H](CC(N)=O)NC(=O)[C@H](CC(N)=O)NC(C)=O)[C@@H](C)O)[C@@H](C)CC)[C@@H](C)CC)C(N)=O)nn5)C(C)(C)[C@@H]4CC[C@@]3(C)[C@]1(C)CC2 (Ac-NNYTSLIHSLIEESQNQQEKNEQELL[βAla]K(X2)-NH2)
3 | 0.044 | C=C(C)[C@@H]1CC[C@]2(C(=O)O)CC[C@]3(C)[C@H](CC[C@@H]4[C@@]5(C)CC[C@H](OC(=O)CCc6cn(CC(=O)NCCCC[C@H](NC(=O)CCNC(=O)[C@H](CC(C)C)NC(=O)[C@H](CC(C)C)NC(=O)[C@H](CCC(=O)O)NC(=O)[C@H](CCC(N)=O)NC(=O)[C@H](CCC(=O)O)NC(=O)[C@H](CC(N)=O)NC(=O)[C@H](CCCCN)NC(=O)[C@H](CCC(=O)O)NC(=O)[C@H](CCC(N)=O)NC(=O)[C@H](CCC(N)=O)NC(=O)[C@H](CC(N)=O)NC(=O)[C@H](CCC(N)=O)NC(=O)[C@H](CO)NC(=O)[C@H](CCC(=O)O)NC(=O)[C@H](CCC(=O)O)NC(=O)[C@@H](NC(=O)[C@H](CC(C)C)NC(=O)[C@H](CO)NC(=O)[C@H](Cc7cnc[nH]7)NC(=O)[C@@H](NC(=O)[C@H](CC(C)C)NC(=O)[C@H](CO)NC(=O)[C@@H](NC(=O)[C@H](Cc7ccc(O)cc7)NC(=O)[C@H](CC(N)=O)NC(=O)[C@H](CC(N)=O)NC(C)=O)[C@@H](C)O)[C@@H](C)CC)[C@@H](C)CC)C(N)=O)nn6)C(C)(C)[C@@H]5CC[C@]43C)[C@@H]12 (Ac-NNYTSLIHSLIEESQNQQEKNEQELL[βAla]K(X3)-NH2)

Row | SMILES | EC50 [µM]
4 | C=C(C)[C@@H]1CC[C@]2(C(=O)O)CC[C@]3(C)[C@H](CC[C@@H]4[C@@]5(C)CC[C@H](O)C(C)(C)[C@@H]5CC[C@]43C)[C@@H]12 | > 100
